The values that follow come from paper PMC6832134, “Discovery of Novel Integrase Inhibitors Acting outside the Active Site Through High-Throughput Screening” (Molecules, 2019).

Data set [1] concerns the target T1, HIV-1 IN (Human immunodeficiency virus type 1 group M subtype B, UniProt P12497).
T1 construct: 250 nM of recombinant HIV-1 integrase; made in house; host or cells: E. coli RosettaII
Description: Gel-based IN 3'-processing assay. It counts as biochemical. The conditions noted are these: at least three independent experiments, read-out: In Vitro IC50 +/−SD, 3'-P. How it is done:
(§1) IN reactions were carried out by adding drugs or an equivalent volume of 100% DMSO (dimethyl sulfoxide, used as the drug solvent) to a mixture of 20 nM duplex DNA (21T/21B) and 400 nM IN in 50 mM MOPS pH 7.2, 7.5 mM MgCl2, and 14 mM 2-mercaptoethanol. Reactions were performed at 37 °C for 2 h and quenched by addition of an equal volume of loading buffer [formamide containing 1% SDS (sodium dodecyl sulfate), 0.25% bromophenol blue, and xylene cyanol]. Reaction products were separated in 16% polyacrylamide denaturing sequencing gels. Dried gels were visualized using a Typhoon 8600 (GE Healthcare, Piscataway, NJ, USA). Densitometric analyses were performed using the ImageQuant 5.1 software from GE Healthcare. Data analyses (linear regression, IC50 determination, and standard deviation) were performed using Prism 6.05 software from GraphPad.

Another data set deals with T2, HIV-1 IN (WT) (Human immunodeficiency virus type 1 group M subtype B, UniProt P12497).
T2 construct: 250 nM of recombinant HIV-1 integrase; made in house; host or cells: E. coli RosettaII
Description: Gel-based IN strand transfer assay, WT enzyme. The class given is biochemical. The conditions noted are these: gel-based assay, coupled ST, at least three independent experiments; read-out: In Vitro IC50 +/−SD, ST. As to the method: as §1

The target in data set [2] is T3, HIV-1 IN mutant G140S/Q148H (Human immunodeficiency virus type 1 group M subtype B, UniProt P12497, G1287S/Q1295H).
T3 construct: RAL-resistant HIV-1 mutant integrases; made in house; host or cells: E. coli RosettaII
Description: Gel-based IN strand transfer assay, G140S/Q148H mutant. The class given is biochemical. How it is done: as §1

The next data set has as its target T4, HIV-1 IN mutant Y143R (Human immunodeficiency virus type 1 group M subtype B, UniProt P12497, Y1290R).
T4 construct: RAL-resistant HIV-1 mutant integrases; made in house; host or cells: E. coli RosettaII
Description: Gel-based IN strand transfer assay, Y143R mutant. The class given is biochemical. As to the method: as §1

For data set [3], the target named is T5, HIV-1 IN mutant N155H (Human immunodeficiency virus type 1 group M subtype B, UniProt P12497, N1302H).
T5 construct: RAL-resistant HIV-1 mutant integrases; made in house; host or cells: E. coli RosettaII
Description: biochemical. The class given is biochemical. As to the method: as §1

Data set [4] deals with VSV pseudo-typed HIV-1 virus particles. Kind of data set: organism not typed. The class given is cell-based. The conditions noted are these: for EC50: read-out: Ex Vivo Antiviral Activity EC50.
The target in data set [5] is T1, HIV-1 IN. Kind of data set: Synergy test with the active site inhibitor MK-2048. The class given is biochemical. The conditions noted are these: subinhibitory dose of stilbene disulfonic acid derivative; IC50 of MK-2048 not affected; data not shown.
Another data set can be described thus: in vitro. The conditions noted are these: human.
The target in the next data set is T6, HIV-1 integrase (Human immunodeficiency virus type 1 group M subtype B, UniProt P12497).
T6 construct: 250 nM of recombinant HIV-1 integrase; made in house; host or cells: E. coli RosettaII
Description: Electrochemiluminescent integrase strand transfer assay (BioVeris), high-throughput screen. The conditions noted are these: for inhibition at 10 µM: single dose 10 µM, read-out: inhibition of IN ST activity. It counts as biochemical. As to the method:
To enable a high-throughput screening, we used the ST assay developed by BioVeris. This proprietary plate-based assay measured stand transfer using electrochemiluminescent technology. First, we validated the assay using HIV-1 IN in the presence of DMSO, or increasing concentrations of a known inhibitor, MA-DKA (also known as 118-D-24, Figure 1A). […] Next, we used MA-DKA as a control in every test plate and screened a large library of molecules. Overall, 3095 compounds were tested as part of the NCI Developmental Therapeutics Program’s small molecule plated sets from the Open Chemical Repository Collection. […] A single dose testing (10 µM) enabled the identification of 130 molecules that inhibited ST by over 50% (light dashed line, Figure 1A). […] NSC153308 is a 2-phenacylsulfanylacetic acid that resembles the diketo acid chemotype. On the other side, NSC119889 is a xanthene derivative similar to V-165 [6]. […] However, the purpose of this study was to identify a new chemotype that might act on IN via a novel mechanism, distinct from known active site inhibitors. Accordingly, we retrieved the chemical structure of the 130 hits and looked for a chemical pattern different from that of conventional strand transfer inhibitors.
This electrochemiluminescent plate-based assay was performed using a BioVeris M-SERIES Analyzer (Gaithersburg, MD, USA). DNA substrates were obtained from BioVeris and used according to the manufacturer’s recommendations. Briefly, a biotinylated donor DNA was incubated for 30 min at 37 °C in the presence of 250 nM of recombinant HIV-1 integrase. Complexes were bound to paramagnetic streptavidin-coated beads (M-280 Dynabeads). After addition of the drug, the integration reaction was initiated by addition of a ruthenium-labeled target DNA. The reaction was carried out for 60 min at 37 °C, before reading on the BioVeris M-SERIES Analyzer.

For data set [6], the system named is HIV-1 IN mutant N155H. Description: biochemical. The class given is biochemical. The conditions noted are these: N155H vs WT, Figure 2B. How it is done:
as §1

The target in data set [7] is T1, HIV-1 IN. On the set-up: method as in PMID 12920196. The conditions noted are these: ref [4], read-out: IC50, ST inhibition, cited from earlier work.
Data set [8] deals with T1, HIV-1 IN. On the set-up: method as in PMID 12920196. The conditions noted are these: regardless of metal cofactor; ref [4]; read-out: IC50, inhibition of 3'-P; cited from earlier work.

Structures are written as SMILES. Values joined by “and” are separate entries in the source; they are usually repeats but may differ in a detail not shown here. Identical values can stand only once. Like-named read-outs stand apart in the source and are kept apart here.

The EC50 is the concentration giving half of the maximal effect. For orientation: inhibition means the share of the control response that was lost under treatment.

In the case of `Nc1ccc(/N=N/c2ccc(/C=C/c3ccc(/N=N/c4ccc(N)c5ccc(S(=O)(=O)O)cc45)cc3S(=O)(=O)O)c(S(=O)(=O)O)c2)c2cc(S(=O)(=O)O)ccc12` [NSC34933], the IC50 at HIV-1 IN [1] is 1.1 ± 0.3 µM; at HIV-1 IN (WT) it was 0.5 ± 0.2 µM; in data set [2], 320 nM; against HIV-1 IN mutant Y143R, 95 nM; against HIV-1 IN mutant N155H [3], 91 nM. The “Selectivity Index SI” value in data set [4] is listed as greater than 166. Further, in [4], the EC50 amounted to 0.6 µM. For the same compound, at HIV-1 IN [5], the “synergy with active site inhibitor MK-2048” value is on record as “could not see any cooperative effect”. This compound displayed a CC50 in “in vitro” greater than 100 µM.
In the case of `O=C(Nc1ccc(Sc2ccc(/N=N/c3c(O)c(S(=O)(=O)O)cc4cc(S(=O)(=O)O)ccc34)cc2)cc1)c1ccc(/N=N/c2c(O)ccc3c(S(=O)(=O)O)cc(S(=O)(=O)O)cc23)cc1` [NSC76027], the inhibition at 10 µM at HIV-1 integrase is 62.8%.
On the same count and under the same terms, with `O=C(O)CSCC(=O)c1ccccc1` [NSC153308] the figure was 99.5%.
Take `Cc1nnc(C(=O)NC(C)(C)c2nc(C(=O)NCc3ccc(F)cc3)c(O)c(=O)n2C)o1` [RAL, raltegravir, reference compound]: in the data set on HIV-1 IN mutant N155H [6], the “loss of potency compared to the WT enzyme” value is reported as “one to two orders of magnitude”.
With `O=S(=O)(O)c1cc(/N=N/c2cc(S(=O)(=O)O)c3cccnc3c2O)ccc1/C=C/c1ccc(/N=N/c2cc(S(=O)(=O)O)c3cccnc3c2O)cc1S(=O)(=O)O` [NSC638352], on HIV-1 integrase, the inhibition at 10 µM worked out at 67.2%.
Take `O=C(O)c1c(Br)c(Br)c(Br)c(Br)c1C1c2ccc(O)cc2Oc2cc(O)ccc21` [NSC119889]: at HIV-1 integrase, the inhibition at 10 µM came to 98.5%.
Consider `CCOc1ccc(/N=N/c2ccc(/C=C/c3ccc(/N=N/c4ccc(OCC)cc4)cc3S(=O)(=O)O)c(S(=O)(=O)O)c2)cc1` [NSC47745], for which the IC50 at HIV-1 IN [1] was ~3 µM and 3.2 µM. Moreover, on HIV-1 IN (WT), the IC50 was ~3 µM and 3.1 µM. In addition, in data set [4], the “Selectivity Index SI” value is reported as greater than 6.5 and the EC50 is 15.3 µM. In addition, the CC50 in the data set “in vitro” is greater than 100 µM.
`O=C(O)C(=O)CC(=O)c1cccn1Cc1ccc(F)cc1` [MA-DKA]: the “inhibition of IN ST activity” value on HIV-1 integrase (at 10 µM, obtained from linear regression of the dose response in Figure 1A) is reported as 94.8%. In addition, the IC50 at HIV-1 integrase (electrochemiluminescent plate-based assay, dose response, read-out: IC50, ST inhibition) is 163 nM; on HIV-1 IN [7] (magnesium as cofactor), 330 nM; on HIV-1 IN [7] (manganese as cofactor), 70 nM; at HIV-1 IN [8], 70 µM.
With `Nc1ccc(/C=C/c2ccc(N)cc2S(=O)(=O)O)c(S(=O)(=O)O)c1` [NSC163], the IC50 on HIV-1 IN [1] and on HIV-1 IN (WT) was greater than 111 µM each time.
Consider `O=[N+]([O-])c1ccc(/C=C/c2ccc([N+](=O)[O-])cc2S(=O)(=O)O)c(S(=O)(=O)O)c1` [NSC163175], for which the IC50 at HIV-1 IN [1] and at HIV-1 IN (WT) was greater than 111 µM throughout.
